# Where two headings read alike, the source gives them in different places.
# Legend:
# [1] = cited from earlier work; for stability of the form (in words): as reported in US 2006/0287528 or US 2007/0021430; for conversion into crystalline sitagliptin phosphate monohydrate: US 2007/0021430
# [2] = Solubility of sitagliptin phosphate in water and polar organic solvents; type: physicochemical
# Text: In a preferred aspect, Form V of sitagliptin phosphate may be prepared by slurring starting material, crude or pure sitagliptin phosphate, anhydrate or solvate, which can be obtained according to the procedures described in U.S. patent application 2005/0032804 with a polar organic solvent or a mixture of two or more polar organic solvents under heat. The sitagliptin phosphate is soluble in water, but not soluble in polar organic solvents. The preferred polar organic solvent is methanol or acetone. The concentration of sitagliptin phosphate within the solution may range from about 0.1% by weight to the saturation point. This concentration will, of course, vary depending upon the temperature at which the co-solvent solution is held, with warmer temperatures generally allowing for the preparation of more concentrated solutions of sitagliptin phosphate. Preferably, the concentration (w/w %) of sitagliptin phosphate starting material in solution is about 0.5-15%, preferably about 1-10%, more preferably about 1.5-5%. The volume ratio of water to methanol or acetone is about 1:0.1-200, preferably about 1:2-30, more preferably about 1:3-10, most preferably about 1:4-6. […]
# [3] = Stability studies of Form V bulk material and tablets on storage, stability-indicating HPLC; type: physicochemical; conditions: bulk material
# Procedure: The stability of Form V of sitagliptin phosphate bulk material and tablets is assessed by storing samples for up to 12 weeks at 25° C./60% RH or up to 3 weeks at 40° C./75% RH. Changes are monitored using a stability-indicating HPLC method. Results were calculated by normalized peak area (npa). Degradants are identified by comparison of their relative retention times against impurity standards.
# [4] = Thermal phase stability of Form V on heating; type: physicochemical; conditions: heating up to 41° C.
# Text: Additionally, Form V has lower water content, good material flow characteristic and better chemical stability.
smiles,measurement,setting,value
N[C@@H](CC(=O)N1CCn2c(nnc2C(F)(F)F)C1)Cc1cc(F)c(F)cc1F.O=P(O)(O)O [Form III],temperature below which the form is stable,[1]; US 2006/0287528,below 34 °C
N[C@@H](CC(=O)N1CCn2c(nnc2C(F)(F)F)C1)Cc1cc(F)c(F)cc1F.O=P(O)(O)O [Form I],conversion on grinding or compaction,"[1]; grinding or compaction, US 2006/0287528",can be converted into Form III
N[C@@H](CC(=O)N1CCn2c(nnc2C(F)(F)F)C1)Cc1cc(F)c(F)cc1F.O=P(O)(O)O [ethanol solvate],stability of the form (in words),[1],not a stable form
"N[C@@H](CC(=O)N1CCn2c(nnc2C(F)(F)F)C1)Cc1cc(F)c(F)cc1F.O=P(O)(O)O [sitagliptin phosphate, dihydrogenphosphate salt of (2R)-4-oxo-4-[3-(trifluoromethyl)-5,6-dihydro[1,2,4]triazolo[4,3-α]pyrazin-7(8H)yl]-1-(2,4,5-trifluorophenyl)butan-2-amine]",solubility in polar organic solvents,"[2]; polar organic solvents (e.g. methanol, acetone)",not soluble
same,solubility in water,[2]; water,soluble
N[C@@H](CC(=O)N1CCn2c(nnc2C(F)(F)F)C1)Cc1cc(F)c(F)cc1F.O=P(O)(O)O [Form II],stability of the form (in words),[1],metastable
same,time to convert to anhydrous Form I or Form III or mixtures thereof,"[1]; at about 45° C., US 2006/0287528",about 2 hours
"N[C@@H](CC(=O)N1CCn2c(nnc2C(F)(F)F)C1)Cc1cc(F)c(F)cc1F.O=P(O)(O)O [Form V, (2R)-4-oxo-4-[3-(trifluoromethyl)-5,6-dihydro[1,2,4]triazolo[4,3-α]pyrazin-7(8H)yl]-1-(2,4,5-trifluorophenyl)butan-2-amine dihydrogenphosphate]",time for which polymorph (phase) and chemical stability was demonstrated,[3]; elevated temperature and humidity (40° C./75%),over 3 weeks
same,time stable with respect to polymorphic form (phase) stability and formation of known and unknown degradants,[3]; stored under normal conditions of temperature and humidity,over 3 months
same,phase transformation on heating,[4],does not undergo a phase transformation
N[C@@H](CC(=O)N1CCn2c(nnc2C(F)(F)F)C1)Cc1cc(F)c(F)cc1F.O=P(O)(O)O [Form IV],conversion into crystalline sitagliptin phosphate monohydrate,[1]; ambient conditions,slowly
same,stability of the form (in words),[1],metastable
same,conversion into crystalline sitagliptin phosphate monohydrate,[1]; high relative humidity (98%) at room temperature,rapidly

# From patent US20090247532A1, “Crystalline polymorph of sitagliptin phosphate and its preparation” (Mae De Ltd., priority 2008, published 2009)
